Laboratory results as given in patent US10072011B2, “Substituted bridged urea analogs as sirtuin modulators” (GlaxoSmithKline Intellectual Property (No.2) Limited, priority 2014, dated 2018).
Read-outs that look alike come from different tables or passages of the source.

Biological target: T1, SIRT1 (Homo sapiens, UniProt Q96EB6)
T1 sequence (Q96EB6 1-747): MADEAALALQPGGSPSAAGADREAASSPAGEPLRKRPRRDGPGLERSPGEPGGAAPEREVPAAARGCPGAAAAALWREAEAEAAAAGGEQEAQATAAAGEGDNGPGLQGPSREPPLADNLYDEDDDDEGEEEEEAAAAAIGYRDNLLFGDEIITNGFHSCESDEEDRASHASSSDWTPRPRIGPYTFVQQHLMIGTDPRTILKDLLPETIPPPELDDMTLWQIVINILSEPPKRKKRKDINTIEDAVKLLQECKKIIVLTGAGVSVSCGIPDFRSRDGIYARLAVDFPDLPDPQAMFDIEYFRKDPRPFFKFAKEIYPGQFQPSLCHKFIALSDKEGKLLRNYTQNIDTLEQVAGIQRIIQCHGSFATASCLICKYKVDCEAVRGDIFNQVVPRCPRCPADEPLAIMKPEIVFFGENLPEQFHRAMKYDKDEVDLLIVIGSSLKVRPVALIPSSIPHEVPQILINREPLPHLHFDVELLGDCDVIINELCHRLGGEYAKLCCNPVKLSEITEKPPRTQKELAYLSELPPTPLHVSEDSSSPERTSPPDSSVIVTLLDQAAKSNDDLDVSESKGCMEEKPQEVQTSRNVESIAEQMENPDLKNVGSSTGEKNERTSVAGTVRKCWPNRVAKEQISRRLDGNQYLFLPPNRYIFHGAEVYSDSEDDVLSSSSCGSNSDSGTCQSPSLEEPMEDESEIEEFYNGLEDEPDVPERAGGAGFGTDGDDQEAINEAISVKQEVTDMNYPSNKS
Assay: Trp mass spectrometry assay of SIRT1 activation (Ac-R-H-K-K(Ac)-W-NH2 peptide)
Type: biochemical
Settings: for Emax: 25 min, read-out: TRP MAX RESP (percent maximum fold activation)
Procedure, shortened: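 Mass spectrometry read-out (OAADPR formed, or deacetylated Trp peptide) after a 25 min NAD-dependent deacetylation by E. coli-expressed His-SIRT1, stopped with formic acid.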

[1] = Trp peptide 0.5 μM, 120 μM βNAD+, 10 nM SIRT1, 25 min at 25° C.
[2] = Trp peptide 0.5 μM, 120 μM βNAD+, 10 nM SIRT1, 25 min at 25° C., relative to control (100%)

TRP Activity (EC1.5, concentration of test compound that results in 150% activation of SIRT1) [1]	Emax [2]	TRP MAX RESP (percent maximum fold activation) [2]	SMILES	Emax
A (EC1.5<1 μM)	> 150%		C[C@@H](NC(=O)c1ccc2c(n1)N(C(=O)Nc1cc(C(=O)NN)ccn1)[C@H]1CCN2C1)C(F)(F)F [Example 152, (4S)—N5-(4-(hydrazinecarbonyl)pyridin-2-yl)-N7-((R)-1,1,1-trifluoropropan-2-yl)-3,4-dihydro-1,4-methanopyrido[2,3-b][1,4]diazepine-5,7(2H)-dicarboxamide]	
A (EC1.5<1 μM)	> 150%		C[C@@H](NC(=O)c1ccc2c(n1)N(C(=O)Nc1ccncn1)[C@H]1CCN2C1)C(F)(F)F [Example 66, (4S)—N5-(pyrimidin-4-yl)-N7-((R)-1,1,1-trifluoropropan-2-yl)-3,4-dihydro-1,4-methanopyrido[2,3-b][1,4]diazepine-5,7(2H)-dicarboxamide]	
A (EC1.5<1 μM)	> 150%		O=C(NCc1ccc(F)cc1)c1ccc2c(n1)N(C(=O)Nc1cc(OC[C@H](O)CO)ccn1)[C@H]1CCN2C1 [Example 240, (4S)—N5-(4-((R)-2,3-dihydroxypropoxy)pyridin-2-yl)-N7-(4-fluorobenzyl)-3,4-dihydro-1,4-methanopyrido[2,3-b][1,4]diazepine-5,7(2H)-dicarboxamide]	
B (EC1.5 1-25 μM)	> 150%		CN(CC(F)(F)F)C(=O)c1ccc2c(n1)N(C(=O)Nc1ccccn1)[C@H]1CCN2C1 [Example 254, (4S)—N7-methyl-N5-(pyridin-2-yl)-N7-(2,2,2-trifluoroethyl)-3,4-dihydro-1,4-methanopyrido[2,3-b][1,4]diazepine-5,7(2H)-dicarboxamide]	
A (EC1.5<1 μM)	> 150%		C[C@@H](NC(=O)c1ccc2c(n1)N(C(=O)Nc1cc(OCCCO)ccn1)[C@H]1CCN2C1)C(F)(F)F [Example 266, (4S)—N5-(4-(3-hydroxypropoxy)pyridin-2-yl)-N7-((R)-1,1,1-trifluoropropan-2-yl)-3,4-dihydro-1,4-methanopyrido[2,3-b][1,4]diazepine-5,7(2H)-dicarboxamide]	
B (EC1.5 1-25 μM)	> 150%		O=C(NCC(F)(F)F)c1ccc2c(n1)N(C(=O)Nc1cnc(OC[C@@H](O)CO)cn1)[C@H]1CCN2C1 [Example 118, (4S)—N5-(5-((S)-2,3-dihydroxypropoxy)pyrazin-2-yl)-N7-(2,2,2-trifluoroethyl)-3,4-dihydro-1,4-methanopyrido[2,3-b][1,4]diazepine-5,7(2H)-dicarboxamide]	
A (EC1.5<1 μM)	> 150%		O=C(N[C@H](c1ccccc1)C(F)(F)F)c1ccc2c(n1)N(C(=O)Nc1cc(OC[C@H](O)CO)ccn1)[C@H]1CCN2C1 [Example 184, (4S)—N5-(4-((R)-2,3-dihydroxypropoxy)pyridin-2-yl)-N7-((R)-2,2,2-trifluoro-1-phenylethyl)-3,4-dihydro-1,4-methanopyrido[2,3-b][1,4]diazepine-5,7(2H)-dicarboxamide]	
B (EC1.5 1-25 μM)	> 150%		O=C(NC1CCOC1)c1ccc2c(n1)N(C(=O)Nc1ccccn1)[C@H]1CCN2C1 (stereo partly drawn) [Example 6, (4S)—N-5-(pyridin-2-yl)-N-7-(tetrahydrofuran-3-yl)-3,4-dihydro-1,4-methano pyrido [2,3-b] [1, 4] diazepine-5, 7(2H)-dicarboxamide]	
B (EC1.5 1-25 μM)		B (Fold Activation<150%)	NC(CNC(=O)c1ccc2c(n1)N(C(=O)Nc1cc(OC[C@H](O)CO)ccn1)[C@H]1CCN2C1)C(F)(F)F (single isomer, unassigned) [Example 317]	
A (EC1.5<1 μM)	> 150%		C[C@@H](NC(=O)c1ccc2c(n1)N(C(=O)Nc1cnc(OC[C@H](O)CO)cn1)[C@H]1CCN2C1)C(F)(F)F [Example 194, (4S)—N5-(5-((R)-2,3-dihydroxypropoxy)pyrazin-2-yl)-N7-((R)-1,1,1-trifluoropropan-2-yl)-3,4-dihydro-1,4-methanopyrido[2,3-b][1,4]diazepine-5,7(2H)-dicarboxamide]	
A (EC1.5<1 μM)	> 150%		O=C(NCC(F)(F)F)c1ccc2c(n1)N(C(=O)Nc1cc(OCCO)ccn1)[C@H]1CCN2C1 [Example 161, (4S)—N5-(4-(2-hydroxyethoxy)pyridin-2-yl)-N7-(2,2,2-trifluoroethyl)-3,4-dihydro-1,4-methanopyrido[2,3-b][1,4]diazepine-5,7(2H)-dicarboxamide]	
A (EC1.5<1 μM)	> 150%		CC(C)c1ccc(NC(=O)N2c3nc(C(=O)NCC(F)(F)F)ccc3N3CC[C@H]2C3)nc1 [Example 172, (4S)—N5-(5-isopropylpyridin-2-yl)-N7-(2,2,2-trifluoroethyl)-3,4-dihydro-1,4-methanopyrido[2,3-b][1,4]diazepine-5,7(2H)-dicarboxamide]	
A (EC1.5<1 μM)			CC(C#N)NC(=O)c1ccc2c(n1)N(C(=O)Nc1ccccn1)[C@H]1CCN2C1 (single isomer, unassigned) [Example 103]	

SMILES	TRP Activity (EC1.5, concentration of test compound that results in 150% activation of SIRT1) [1]	Emax [2]	TRP MAX RESP (percent maximum fold activation) [2]	Emax
CN(C)NC(=O)c1ccc2c(n1)N(C(=O)Nc1ccccn1)[C@H]1CCN2C1 [Example 201, (4S)-7-(2,2-dimethylhydrazinecarbonyl)-N-(pyridin-2-yl)-3,4-dihydro-1,4-methanopyrido[2,3-b][1,4]diazepine-5(2H)-carboxamide]	B (EC1.5 1-25 μM)			> 150%
Cn1nccc(NC(=O)N2c3nc(C(=O)NCC(F)(F)F)ccc3N3CC[C@H]2C3)c1=O [Example 121, (4S)—N5-(2-methyl-3-oxo-2,3-dihydropyridazin-4-yl)-N7-(2,2,2-trifluoroethyl)-3,4-dihydro-1,4-methanopyrido[2,3-b][1,4]diazepine-5,7(2H)-dicarboxamide]	A (EC1.5<1 μM)			> 150%
